Results: paper PMC11513923, “Discovery of ZLC491 as a Potent, Selective, and Orally Bioavailable CDK12/13 PROTAC Degrader” (Journal of Medicinal Chemistry, 2024)

Legend:
DDR genes = assay: RT-qPCR of DDR genes in MDA-MB-231 cells; format: cell-based, human; details: MDA-MB-231, different doses, 12 h
Experimental: We next evaluated the effect of ZLC491 on the expression of DDR genes regulated by CDK12/13.
(A) Transcription level of DDR genes in MDA-MB-231 cells determined by RT-qPCR upon the treatment with vehicle or ZLC491 at different doses for 12 h, ROR1 was used as a negative control; (B) immunoblotting of DDR proteins in MDA-MB-231 cells after the treatment of ZLC491 at different doses for 48 h; (C) cell antiproliferative activity of ZLC491 in multiple TNBC cells as well as several noncancerous cells. Cells were treated with the compound for 5 days; (D,E) antiproliferative potency of cisplatin or olaparib alone or combined with ZLC491 at different doses in MDA-MB-231 cells for 5 days. Data are plotted using the percentage of absorbance relative to DMSO controls. (F) IC50 values and combination index (CI) in drug combination assay. In this model, CI scores estimate the interaction between the two drugs. If CI < 1, the drugs have a synergistic effect and if CI > 1, the drugs have an antagonistic effect. […]
RNA utilized for RT-qPCR was extracted as outlined below. […] Expression was normalized to GAPDH, and fold change in expression was calculated relative to the indicated conditions using ΔΔCt method.

CDK12 and CDK13 = assay: Pharmacodynamic study in MDA-MB-231 xenografted mouse model, Western blot of tumor tissues; format: in vivo; details: 100 and 200 mg/kg orally, 5 consecutive days, vs vehicle, MDA-MB-231 xenograft mice
Experimental: (§1) We further performed pharmacodynamic studies of ZLC491 in an MDA-MB-231 xenografted mouse model. ZLC491 was orally administrated at two doses of 100 and 200 mg/kg, respectively, for 5 consecutive days (Figure 7A). Tumor tissues were harvested on day 5 and subjected to Western blot analysis. […] Additionally, we conducted further histological analysis on the tumors following ZLC491 treatment.
(§2) Figure 7 ZLC491 depleted CDK12 and CDK13 proteins in vivo. (A) Study design of pharmacodynamics assessment on target engagement of ZLC491 in the MDA-MB-231 xenograft model; (B) immunoblotting of CDK12, CDK13, and α-tubulin in tissue lysate of MDA-MB-231 xenografts model after ZLC491 treatment; (C) protein levels were quantified using ImageJ and normalized to corresponding α-tubulin, then plotted using GraphPad Prism 8.0; (D) immunohistochemistry (IHC) analysis on the tumors by H&E staining and TUNEL assays; (E) TUNEL histology scores were analyzed and plotted by GraphPad Prism 8.0; (F) body weight change during the treatment.
(§3) The pharmacodynamics experiments were performed under an approved animal protocol by the Institutional Animal Care & Use Committee of the University of Michigan. Six- to eight-week-old CB17SCID female (Charles River Laboratory) mice were in a regular SPF housing room prior to cell injection. […]

[1] = Tolerability and body weight in MDA-MB-231 xenografted mice; format: in vivo; details: 100 and 200 mg/kg orally, 5 days
Experimental: as §1, §2, §3

Pharmacokinetics in rats = format: in vivo, rat; details: male, Sprague-Dawley, rat, plasma
Experimental: We further evaluated the in vivo PK properties of compound ZLC491 and the counterpart 4m (without F substitution) in rats, and the results were summarized in Table 2. […] The PK profiles of F-containing compound ZLC491 were further improved.
The pharmacokinetic investigation was taken by Shanghai Medicilon Inc. (Project Code: 26048-23001-NG). Sprague–Dawley male rats (Specific pathogen Free (SPF), provided by Zhejiang Vital River Laboratory Animal Technology Co. Ltd.) were dosed with ZLC491 solution formulation (5% DMSO, 10% Solutol, 85% normal saline, 2.5 mg/kg for intravenous dose, 10 mg/kg for oral dose) or compound 4m solution formulation (5% DMSO, 10% Solutol, 85% (20%HP-β-CD), 2.5 mg/kg for intravenous dose, 10 mg/kg for oral dose). Blood samples were collected at 0.083, 0.25, 0.5, 1, 2, 4, 8, and 24 h in intravenous administration, 0.25, 0.5, 1, 2, 4, 6, 8, and 24 h in oral administration. The blood samples were collected from sets of three rats at each time point in labeled microcentrifuge tubes containing heparin sodium as an anticoagulant. Plasma samples were separated by centrifugation (2–8 °C, 6800g for 6 min) within 1 h and stored below −80 °C until bioanalysis. All samples were processed for analysis by precipitation using acetonitrile and analyzed with a partially validated LC/MS/MS method. Pharmacokinetic parameters were calculated using the noncompartmental analysis tool of WinNonlin Enterprise software.

N#Cc1ccc(N[C@H]2CC[C@H](N(C(=O)NCc3ccccc3)c3ccc(N4CCN(C5CCN(c6cc7c(cc6F)C(=O)N(C6CCC(=O)NC6=O)C7=O)CC5)CC4)cc3)CC2)nc1 (stereo partly drawn) [ZLC491, 3-Benzyl-1-((1r,4r)-4-((5-cyanopyridin-2-yl)amino)cyclohexyl)-1-(4-(4-(1-(2-(2,6-dioxopiperidin-3-yl)-6-fluoro-1,3-dioxoisoindolin-5-yl)piperidin-4-yl)piperazin-1-yl)phenyl)urea]
transcription of DDR genes (ATM, ATR, BRCA1, BRCA2, FANCD2, SMARCC) (DDR genes): concentration-dependently suppressed | CDK12 and CDK13 proteins in tumor tissues (CDK12 and CDK13): significantly depleted | body weight change during the treatment [1]: absence of body weight loss | tolerability [1]: well tolerated | AUC(0-t) at 24 h (Pharmacokinetics in rats; iv, i.v. 2.5 mg/kg): 6820 ng·h/mL | Cmax at 24 h (Pharmacokinetics in rats; iv, i.v. 2.5 mg/kg): 4590 ng/mL | clearance at 24 h (Pharmacokinetics in rats; iv, i.v. 2.5 mg/kg): 6.38 mL/min/kg | half-life at 24 h (Pharmacokinetics in rats; iv, i.v. 2.5 mg/kg): 2.46 h | bioavailability at 24 h (Pharmacokinetics in rats; oral bioavailability, p.o. 10 mg/kg vs i.v. 2.5 mg/kg): 46.8% | AUC(0-t) at 24 h (Pharmacokinetics in rats; po, p.o. 10 mg/kg): 12800 ng·h/mL | Cmax at 24 h (Pharmacokinetics in rats; po, p.o. 10 mg/kg): 1310 ng/mL | half-life at 24 h (Pharmacokinetics in rats; po, p.o. 10 mg/kg): 2.92 h
